Laboratory results reported in PMC5028780, “Receptor and transporter binding and activity profiles of albiflorin extracted from Radix paeoniae Alba” (Scientific Reports, 2016).
Values joined by “and” are separate entries in the source; they are usually repeats but may differ in a detail not shown here. Equal values may be shown once.

Columns and labels:
rat NET = target: T1, rat NET (Rattus norvegicus, UniProt Q63380); experiment: Rat monoamine transporter binding assay, NET
T1 construct: from tissue; host or cells: Sprague-Dawley rat hypothalamus membranes
Protocol: (§1) Male Sprague–Dawley rats were killed by cervical dislocation, and their brains were rapidly removed and then dissected on ice. The cerebral cortex, hypothalamus and striatum were homogenised in 4 mL of assay buffer (50 mM Tris–HCl buffer, pH 7.4.) and centrifuged at 40,000× g for 10 min at 4 °C. The pellets were centrifuged twice at 20,000× g and then resuspended in 4 mL of assay buffer. […] Bio-Rad protein assay reagents (1:5 ratio) were used to analyse the protein concentration of the synaptosomal suspension.
(§2) All data for inhibition curves were analysed by nonlinear regression using Prism software (GraphPad Software Inc., San Diego, CA) to determine IC50 values. For the microdialysis experiments, two-way repeated-measures ANOVA followed by Tukey’s test was used to compare the percentage increase over baseline between groups, time and treatment as independent factors, and time as the repeated factor.

rat DAT = target: T2, rat DAT (Rattus norvegicus, UniProt P23977); conditions: [3H]-win35,428, Striatum, read-out: Ki values, DAT binding
T2 construct: from tissue; host or cells: Sprague-Dawley rat brain membranes (probably striatum)
Protocol: as §1, §2

SERT = target: T3, SERT (Rattus norvegicus, UniProt P31652); experiment: Rat synaptosome uptake assay, [3H]-5-HT; type: biochemical; conditions: Mid brain synaptosome
T3 construct: rat brain synaptosomes were prepared and treated with various concentrations of albiflorin; from tissue; host or cells: Sprague-Dawley rat brain synaptosomes (cerebral cortex in the text)
Protocol: Male Sprague–Dawley rats were killed by asphyxiation with carbon dioxide and cervical dislocation followed by decapitation. […] All dissected tissues were homogenised using a Teflon-glass tissue homogeniser in 4 mL of ice-cold sucrose (0.32 M). The homogenised tissue was centrifuged at 2,000× g for 10 min at 4 °C. […] Bio-Rad protein assay reagents (1:5 ratio) were used to analyse the protein concentration of the synaptosomal suspension. Uptake of 5-HT, NE and DA was determined as described previously. The compounds to be tested were dissolved in DMSO, further diluted with assay buffer, and tested over a 10-log unit concentration range in duplicate. Samples of 30–50 μg of synaptosomes (per sample in a total volume of 200 μL) were preincubated at 37 °C in a shaking water bath for 10 min. Vehicle or modifiers were then added for 10–20 min. Uptake was initiated by adding [^3H]-5-HT (20 nM), [^3H]-NE (20 nM), or [^3H]-DA (50 nM). After a 10-min incubation at 37 °C, uptake was terminated by filtration through (polyethyleneimine-coated) GF/B Whatman filters using a Brandel Cell Harvester (Brandel, Gaithersburg, MD).
All data for inhibition curves were analysed by nonlinear regression using Prism software (GraphPad Software Inc., San Diego, CA) to determine IC50 values. […]

D1 = target: T4, D1 (Homo sapiens, UniProt P21728); experiment: CNS receptor binding, dopamine D1; conditions: HEK293 cell line, [3H]-SCH23390(1)
T4 construct: expressed in transfected cells; host or cells: HEK293 cell line
Protocol: (§3) Albiflorin (10 μM) was tested for numerous other potential binding targets by using standard receptor binding procedures. The tested targets included the following receptors: D1, D2, D3, D4, D5, 5-HT1A, 5-HT1B, 5-HT1D, 5-HT2a, 5-HT2C, 5-HT3, 5-HT5A, 5-HT6, 5-HT7, α1A, α1B, α2A, β1, M1, M2, M3, M4, M5, μ, κ, δ, A1, A2A, H1, H2, H3, H4.

D2 = target: T5, D2 (Homo sapiens, UniProt P14416); experiment: CNS receptor binding, dopamine D2; conditions: HEK293 cell line, [3H]-spiperone(1)
T5 construct: expressed in transfected cells; host or cells: HEK293 cell line
Protocol: as §3

5-HT1B = 5-HT1B (Homo sapiens, UniProt P28222); experiment: CNS receptor binding, 5-HT1B; conditions: HEK293 cell line, [3H]-LSD(6)
Protocol: as §3

5-HT1D = 5-HT1D (Homo sapiens, UniProt P28221); experiment: CNS receptor binding, 5-HT1D; conditions: HEK293 cell line, [3H]-LSD(10)
Protocol: as §3

5-HT2a = 5-HT2a (Homo sapiens, UniProt P28223); experiment: CNS receptor binding, 5-HT2a; conditions: HEK293 cell line, [3H]-ketanserin(1)
Protocol: as §3

α1A = α1A (Rattus norvegicus, UniProt P43140); experiment: CNS receptor binding, NE receptor α1A; conditions: Rat Frontal cortex, [3H]-parzosin(1)
Protocol: as §3

α2A = α2A (Rattus norvegicus, UniProt P22909); experiment: CNS receptor binding, NE receptor α2A; conditions: Rat Cortex, [3H]-clonidine(2)
Protocol: as §3

M1 = M1 (Homo sapiens, UniProt P11229); experiment: CNS receptor binding, muscarinic M1; conditions: CHO cell line, [3H]-NMS(1)
Protocol: as §3

M4 = M4 (Homo sapiens, UniProt P08173); experiment: CNS receptor binding, muscarinic M4; conditions: CHO cell line, [3H]-NMS(1)
Protocol: as §3

μ = μ (Homo sapiens, UniProt P35372); experiment: CNS receptor binding, opioid μ; conditions: CHO cell line, [3H]-dipnorphine(1)
Protocol: as §3

κ = κ (Homo sapiens, UniProt P41145); experiment: CNS receptor binding, opioid κ; conditions: CHO cell line, [3H]-dipnorphine(1)
Protocol: as §3

A1 = A1 (Homo sapiens, UniProt P30542); experiment: CNS receptor binding, adenosine A1; conditions: CHO cell line, [3H]-DPCPX(1)
Protocol: as §3

A2A = A2A (Homo sapiens, UniProt P29274); experiment: CNS receptor binding, adenosine A2A; conditions: HEK293 cell line, [3H]-CGS21680(10), read-out: IC50 values for albiflorin
Protocol: as §3

H1 = H1 (Homo sapiens, UniProt P35367); experiment: CNS receptor binding, histamine H1; conditions: CHO cell line, [3H]-pyrilamine(2)
Protocol: as §3

H2 = H2 (Homo sapiens, UniProt P25021); experiment: CNS receptor binding, histamine H2; conditions: HEK293 cell line, [3H]-tiotodine(1)
Protocol: as §3

duration of immobility = test system: duration of immobility; parameters: method as in PMID 26719283; conditions: mice; short- and long-term administration; cited from earlier work
sucrose consumption = test system: sucrose consumption; parameters: method as in PMID 26719283; conditions: rats; chronic unpredicted mild stress; cited from earlier work
[1] = read-out: IC50 values for albiflorin

T1 sequence (Q63380 1-617): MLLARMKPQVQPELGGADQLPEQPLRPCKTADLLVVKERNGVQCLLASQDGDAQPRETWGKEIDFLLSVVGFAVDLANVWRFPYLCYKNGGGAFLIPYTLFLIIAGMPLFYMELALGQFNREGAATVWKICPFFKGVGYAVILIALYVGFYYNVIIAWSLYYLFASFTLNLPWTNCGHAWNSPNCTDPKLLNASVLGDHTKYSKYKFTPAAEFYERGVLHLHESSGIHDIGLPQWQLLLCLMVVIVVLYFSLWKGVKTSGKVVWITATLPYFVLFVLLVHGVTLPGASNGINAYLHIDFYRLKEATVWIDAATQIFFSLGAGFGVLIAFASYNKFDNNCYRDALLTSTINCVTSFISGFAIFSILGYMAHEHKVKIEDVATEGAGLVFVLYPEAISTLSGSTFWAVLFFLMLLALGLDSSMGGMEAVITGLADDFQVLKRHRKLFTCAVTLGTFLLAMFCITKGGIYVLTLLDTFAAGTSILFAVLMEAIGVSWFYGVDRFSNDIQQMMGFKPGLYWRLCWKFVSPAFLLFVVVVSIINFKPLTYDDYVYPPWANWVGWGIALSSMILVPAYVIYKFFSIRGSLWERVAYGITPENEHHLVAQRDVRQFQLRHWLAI
Sequence of H1 (P35367 whole entry): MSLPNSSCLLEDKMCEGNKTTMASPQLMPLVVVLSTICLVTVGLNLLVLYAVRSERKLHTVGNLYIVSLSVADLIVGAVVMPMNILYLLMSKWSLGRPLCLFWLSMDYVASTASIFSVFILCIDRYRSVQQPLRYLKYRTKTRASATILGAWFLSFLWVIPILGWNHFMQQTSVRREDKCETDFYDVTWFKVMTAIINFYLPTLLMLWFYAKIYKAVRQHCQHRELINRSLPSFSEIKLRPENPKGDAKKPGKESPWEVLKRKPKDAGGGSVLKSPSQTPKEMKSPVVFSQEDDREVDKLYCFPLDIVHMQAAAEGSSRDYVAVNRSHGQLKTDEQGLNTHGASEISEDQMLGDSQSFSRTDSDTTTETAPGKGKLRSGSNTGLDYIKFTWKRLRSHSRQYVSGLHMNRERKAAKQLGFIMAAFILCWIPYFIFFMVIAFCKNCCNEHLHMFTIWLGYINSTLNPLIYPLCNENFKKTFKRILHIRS
Sequence of A1 (P30542 whole entry): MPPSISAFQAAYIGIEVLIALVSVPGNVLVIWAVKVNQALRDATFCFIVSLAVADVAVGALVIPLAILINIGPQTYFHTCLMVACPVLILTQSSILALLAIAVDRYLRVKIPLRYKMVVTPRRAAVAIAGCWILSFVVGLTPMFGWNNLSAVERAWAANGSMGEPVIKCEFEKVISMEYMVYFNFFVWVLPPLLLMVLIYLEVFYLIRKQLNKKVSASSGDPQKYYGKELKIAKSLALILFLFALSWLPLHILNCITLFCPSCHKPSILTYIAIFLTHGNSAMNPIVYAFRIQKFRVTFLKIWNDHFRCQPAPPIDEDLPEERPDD
Sequence of 5-HT1D (P28221 whole entry): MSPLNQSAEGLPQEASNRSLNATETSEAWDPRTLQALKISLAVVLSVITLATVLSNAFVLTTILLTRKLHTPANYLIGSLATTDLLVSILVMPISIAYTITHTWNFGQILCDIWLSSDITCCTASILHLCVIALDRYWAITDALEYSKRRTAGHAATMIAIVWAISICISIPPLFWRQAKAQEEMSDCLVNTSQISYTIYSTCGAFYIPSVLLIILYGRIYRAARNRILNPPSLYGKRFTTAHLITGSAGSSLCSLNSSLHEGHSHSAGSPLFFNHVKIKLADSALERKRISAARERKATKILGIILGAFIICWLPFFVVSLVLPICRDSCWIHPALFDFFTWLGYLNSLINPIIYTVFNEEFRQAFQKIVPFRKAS
Sequence of 5-HT1B (P28222 whole entry): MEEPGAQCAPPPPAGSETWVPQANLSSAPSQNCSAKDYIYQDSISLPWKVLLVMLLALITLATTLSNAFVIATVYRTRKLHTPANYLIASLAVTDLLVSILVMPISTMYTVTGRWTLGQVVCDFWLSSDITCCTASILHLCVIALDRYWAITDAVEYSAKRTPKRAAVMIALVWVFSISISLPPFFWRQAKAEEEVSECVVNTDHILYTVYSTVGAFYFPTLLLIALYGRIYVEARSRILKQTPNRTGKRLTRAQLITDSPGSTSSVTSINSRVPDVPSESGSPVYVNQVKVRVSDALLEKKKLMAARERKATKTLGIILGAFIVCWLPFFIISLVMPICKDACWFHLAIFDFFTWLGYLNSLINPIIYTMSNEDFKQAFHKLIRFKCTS
Sequence of M4 (P08173 whole entry): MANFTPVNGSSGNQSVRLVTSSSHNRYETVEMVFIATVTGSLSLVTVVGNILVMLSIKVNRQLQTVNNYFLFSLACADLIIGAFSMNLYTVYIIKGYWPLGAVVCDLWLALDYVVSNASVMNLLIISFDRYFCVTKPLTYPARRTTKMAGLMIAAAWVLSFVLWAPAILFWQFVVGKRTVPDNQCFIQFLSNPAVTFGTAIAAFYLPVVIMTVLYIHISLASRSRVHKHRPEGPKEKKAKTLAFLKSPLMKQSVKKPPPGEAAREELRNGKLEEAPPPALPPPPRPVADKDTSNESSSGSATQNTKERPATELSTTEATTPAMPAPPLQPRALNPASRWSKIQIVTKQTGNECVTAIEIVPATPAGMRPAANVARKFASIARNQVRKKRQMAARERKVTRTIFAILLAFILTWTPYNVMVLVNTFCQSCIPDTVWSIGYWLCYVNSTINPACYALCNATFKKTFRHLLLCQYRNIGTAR
Sequence of H2 (P25021 whole entry): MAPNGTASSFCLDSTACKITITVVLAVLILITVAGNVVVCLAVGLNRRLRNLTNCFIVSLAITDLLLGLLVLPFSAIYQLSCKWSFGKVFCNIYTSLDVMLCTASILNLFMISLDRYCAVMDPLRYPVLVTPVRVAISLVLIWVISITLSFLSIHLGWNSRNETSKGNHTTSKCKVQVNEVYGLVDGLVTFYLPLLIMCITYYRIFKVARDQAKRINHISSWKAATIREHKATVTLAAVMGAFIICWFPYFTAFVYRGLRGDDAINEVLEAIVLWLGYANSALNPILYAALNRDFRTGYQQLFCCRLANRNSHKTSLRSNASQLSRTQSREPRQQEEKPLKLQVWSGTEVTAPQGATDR
T4 sequence (P21728 whole entry): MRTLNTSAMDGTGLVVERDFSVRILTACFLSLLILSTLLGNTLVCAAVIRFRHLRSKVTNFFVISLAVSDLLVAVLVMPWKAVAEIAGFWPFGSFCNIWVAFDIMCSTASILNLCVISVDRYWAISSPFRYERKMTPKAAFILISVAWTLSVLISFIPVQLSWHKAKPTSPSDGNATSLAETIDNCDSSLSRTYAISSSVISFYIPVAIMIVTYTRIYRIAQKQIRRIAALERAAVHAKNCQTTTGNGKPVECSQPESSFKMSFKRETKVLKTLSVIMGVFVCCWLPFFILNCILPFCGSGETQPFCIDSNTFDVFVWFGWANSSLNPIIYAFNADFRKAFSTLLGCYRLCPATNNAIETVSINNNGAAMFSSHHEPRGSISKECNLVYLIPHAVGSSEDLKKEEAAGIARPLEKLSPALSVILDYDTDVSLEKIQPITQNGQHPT
Sequence of α1A (P43140 whole entry): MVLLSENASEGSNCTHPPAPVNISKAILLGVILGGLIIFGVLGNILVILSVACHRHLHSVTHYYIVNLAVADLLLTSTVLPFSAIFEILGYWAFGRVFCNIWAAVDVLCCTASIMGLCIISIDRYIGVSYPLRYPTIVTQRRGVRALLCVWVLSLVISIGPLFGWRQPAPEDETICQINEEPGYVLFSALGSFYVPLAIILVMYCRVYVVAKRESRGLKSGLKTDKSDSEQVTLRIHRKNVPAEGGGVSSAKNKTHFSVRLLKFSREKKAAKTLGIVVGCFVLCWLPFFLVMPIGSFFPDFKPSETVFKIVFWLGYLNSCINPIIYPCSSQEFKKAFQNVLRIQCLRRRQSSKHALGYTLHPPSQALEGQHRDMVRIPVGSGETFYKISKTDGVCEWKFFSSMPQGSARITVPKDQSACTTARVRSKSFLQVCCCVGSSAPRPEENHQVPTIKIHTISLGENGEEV
Sequence of 5-HT2a (P28223 whole entry): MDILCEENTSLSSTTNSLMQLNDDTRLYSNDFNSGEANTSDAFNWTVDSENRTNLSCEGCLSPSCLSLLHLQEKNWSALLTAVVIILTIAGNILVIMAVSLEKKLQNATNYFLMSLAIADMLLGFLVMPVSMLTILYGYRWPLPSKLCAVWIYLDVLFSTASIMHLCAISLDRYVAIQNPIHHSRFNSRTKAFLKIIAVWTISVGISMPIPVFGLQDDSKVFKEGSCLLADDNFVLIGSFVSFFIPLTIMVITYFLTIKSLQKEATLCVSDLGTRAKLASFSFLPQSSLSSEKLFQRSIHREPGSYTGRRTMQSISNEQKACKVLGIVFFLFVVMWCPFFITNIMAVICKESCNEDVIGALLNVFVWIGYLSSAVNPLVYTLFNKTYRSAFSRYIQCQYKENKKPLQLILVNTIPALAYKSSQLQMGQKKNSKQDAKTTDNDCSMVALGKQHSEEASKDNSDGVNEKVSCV
Sequence of κ (P41145 whole entry): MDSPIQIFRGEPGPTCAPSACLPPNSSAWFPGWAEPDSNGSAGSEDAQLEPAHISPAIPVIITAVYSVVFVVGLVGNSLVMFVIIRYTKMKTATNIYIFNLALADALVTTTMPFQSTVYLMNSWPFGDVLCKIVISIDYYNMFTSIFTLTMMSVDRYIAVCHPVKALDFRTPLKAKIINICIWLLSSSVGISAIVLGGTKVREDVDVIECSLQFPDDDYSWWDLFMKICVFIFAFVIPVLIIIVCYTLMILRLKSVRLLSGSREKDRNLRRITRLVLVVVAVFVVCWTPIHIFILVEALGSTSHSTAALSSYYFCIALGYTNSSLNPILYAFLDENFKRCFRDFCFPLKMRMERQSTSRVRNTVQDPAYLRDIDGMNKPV

## C[C@]12C[C@@H](O)[C@@H]3C[C@@]1(O[C@@H]1O[C@H](CO)[C@@H](O)[C@H](O)[C@H]1O)[C@@]3(COC(=O)c1ccccc1)C(=O)O2 [albiflorin, Albiflorin]
Rat NET; Rat, [3H]-nisoxetine, Hypothalamus
  Ki: 0.00125 ± 0.00077 µM
Rat NET; albiflorin vs desipramine
  potency/affinity relative to desipramine at the rat NET: 4 fold and 6 fold
Rat DAT
  Ki: 3.656 ± 0.0254 µM
SERT
  IC50: 0.00304 ± 0.00084 µM
D1
  % Inhibition of binding at 10 μM albiflorin: 54.20%
D1; [1]
  IC50: 2.99 ± 0.166 µM
D2
  % Inhibition of binding at 10 μM albiflorin: 12.50%
D2; [1]
  IC50: > 10 µM
5-HT1B
  % Inhibition of binding at 10 μM albiflorin: 16.60%
5-HT1B; [1]
  IC50: > 10 µM
5-HT1D
  % Inhibition of binding at 10 μM albiflorin: 22.36%
5-HT1D; [1]
  IC50: > 10 µM
5-HT2a
  % Inhibition of binding at 10 μM albiflorin: 55.36%
5-HT2a; [1]
  IC50: 4 ± 0.113 µM
α1A
  % Inhibition of binding at 10 μM albiflorin: 56.33%
α1A; [1]
  IC50: 4.71 ± 0.113 µM
α2A
  % Inhibition of binding at 10 μM albiflorin: 36.66%
α2A; [1]
  IC50: > 10 µM
M1
  % Inhibition of binding at 10 μM albiflorin: 21.28%
M1; [1]
  IC50: > 10 µM
M4
  % Inhibition of binding at 10 μM albiflorin: 15.33%
M4; [1]
  IC50: > 10 µM
μ
  % Inhibition of binding at 10 μM albiflorin: 23.66%
μ; [1]
  IC50: > 10 µM
κ
  % Inhibition of binding at 10 μM albiflorin: 32.33%
κ; [1]
  IC50: > 10 µM
A1
  % Inhibition of binding at 10 μM albiflorin: 21.23%
A1; [1]
  IC50: > 10 µM
A2A
  IC50: > 10 µM
H1
  % Inhibition of binding at 10 μM albiflorin: 6.33%
H1; [1]
  IC50: > 10 µM
H2
  % Inhibition of binding at 10 μM albiflorin: 68.99%
H2; [1]
  IC50: 4 ± 0.201 µM
Duration of immobility
  antidepressant-like effect, forced-swim test: decreases in the duration of immobility
Sucrose consumption
  antidepressant-like effect, sucrose consumption: reversal of chronic unpredicted mild stress-induced inhibition of sucrose consumption
